Data on one molecule can be found in US11767316B2, “Non-fused thiophene derivatives and their uses” (ENYO PHARMA, priority 2018, dated 2023).

Test [1] has as its system H1N1 (influenza A/New Caledonia/20/99). As to the kind of experiment: Antiviral effect on A549 cells infected with H1N1 (MUNANA neuraminidase readout). It counts as cell-based. The conditions noted are these: H1N1 A/New Caledonia/20/99 at MOI 0.1, 48 h post-infection, MUNANA fluorescence, read-out: IC50. On the procedure:
The antiviral effect of the compounds of the invention have been tested on A549 cell lines infected with H1N1 (influenza A/New Caledonia/20/99).
Human A549 cells (80,000 cells/well in a 96 well plate) were treated with a range of concentration of test compounds and immediately infected by H1N1 A/New Caledonia/20/99 virus (clinical isolate) at MOI of 0.1 in DMEM/1% Penicillin/streptomycin supplemented with 0.25 μg/ml TPCK trypsin (Sigma) and incubated at 37° C. in 5% CO2. 48 h post-infection, supernatants (25 μl) were collected and transferred into a 96-well black flat-bottom plate, mixed with 25 μl PBS with Ca++/Mg++(Thermo Fisher) and 50 μl of 2′-(4-Methylumbelliferyl)-α-D-N-acetylneuraminic acid sodium salt hydrate stock-solution (20 μM, MUNANA, Sigma). Plates were incubated 1 h at 37° C. and reaction is stopped by adding 100 μl of Stop Solution (glycine 0.1 M pH10.7/25% ethanol). The amount of fluorescent product released by MUNANA hydrolysis (4-MU) was measured in a Tecan spectrophotometer with excitation and emission wavelengths of 365 and 450 nm respectively.

The target in test [2] is T1, CISD3 Gene Product (Miner2) (Homo sapiens, UniProt P0C7P0).
T1 sequence (P0C7P0 15-127): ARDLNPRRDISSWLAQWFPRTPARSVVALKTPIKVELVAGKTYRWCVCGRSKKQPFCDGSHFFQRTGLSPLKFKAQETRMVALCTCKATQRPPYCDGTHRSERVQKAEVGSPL
Nature of the test: Stability of Fe-S cluster binding of purified NEET protein (absorbance 458 nm), Miner2. It counts as biochemical. On the procedure:
The modulator effect on the NEET proteins encoded by human CISD1, CISD2, and CISD3 genes by the compounds of the invention has been tested and is reported below. Particularly, the biochemical function of the NEET proteins is measured by the stability of Fe—S cluster binding of the purified NEET proteins.
The Fe—S cluster binding capacity of NEET proteins is known to be coordinated by four amino-acids in a stretch of 16 (three Cysteine and one Histidine). As the lability of the Fe—S cluster of NEET proteins is sensitive to the environment, cluster stability measurements are one of the measures of interactions of NEET proteins with small molecules and compounds. NEET protein/2Fe-2S cluster stability can be assessed by monitoring the decay in absorbance of its characteristic 458-nm peak (characteristic of the oxidized 2Fe-2S cluster) over time. Each NEET protein (mitoNEET, NAF-1 and Miner 2) was tested for its Fe—S binding in the absence or presence of a compound according to the invention (see table 3 below). […]
At pH 6, all the three NEET proteins (mitoNEET, NAF-1 and Miner 2) have a characteristic rate of loss of the bound Fe—S cluster that can be measured by the decrease of absorbance at wavelength 458 nm over time, using a spectrophotometer. […]
A reaction mix containing DMSO diluted in the Bis-Tris Buffer with or without a compound of the invention was prepared. […] The absorbance at wavelength 458 nm was taken at 5 minutes intervals at 37° C. with a spectrofluorimeter. […]
In addition to time monitoring, residual bound Fe—S cluster to NEET protein was measured at the final point of the spectrometry assay for each Test sample and compared to the Control sample data (in parenthesis table 3). This residual binding is measured by the differential percentage between the absorbance 458 nm at time zero and the absorbance 458 nm at the end of the experiment (i.e. respectively 500 or 180 minutes as described hereabove), showing the percentage of NEET protein still able to bind a Fe—S cluster. […]

As to `O=C(Nc1scc(C2CCc3ccccc3C2)c1C(=O)O)c1ccccc1` (stereo not shown) [#16], the IC50 (in general, the concentration needed to halve the response being measured) in test [1] came to 11.1 nM. In addition, the “Residual cluster bound at end of experiment (Percentage Absorbance 458 nm at time zero)” value in test [2] (CISD3 Gene Product, end of experiment 180 minutes, compound 60 μM, pH 6, vehicle control 11%) is reported as 11% (11%). The “Time (in minutes) to achieve 50% loss of bound cluster (Absorbance 458 nm)” value in test [2] (Miner2 20 μM, compound 60 μM, pH 6, 37° C., vehicle control 60) was 35 (60) minutes. The “Stabiliser or destabiliser of NEET protein/Fe-S cluster binding” value in test [2] (Miner2, destabiliser = time to 50% cluster loss decreased by more than 25% vs control) is “destabilisers”.
